We go through one molecule from article PMC12866179, “Oxidized MIF is an Alzheimer’s disease drug target relaying external risk factors to tau pathology” (Cell Reports Medicine, 2025).

Data set [1] has as its target T1, D-dopachrome tautomerase (D-DT) (Homo sapiens, UniProt P30046).
T1 construct: Lysates derived from SH-SY5Y-tau-P301S control; endogenous in cells; host or cells: SH-SY5Y-tau-P301S control and MIF-ko cell lysates
The data set can be described thus: Drug resin affinity chromatography (DRAC), D-DT. The data set is classed as binding. Conditions: SH-SY5Y-tau-P301S lysates. The procedure:
For drug resin affinity chromatography (DRAC), supernatant of cell lysates or brain extracts were supplemented with 1 mM of ribonucleoside triphosphates (ATP, GTP, CTP, UTP; NEB), 10 mM creatine phosphate (Sigma) and 10 μL/mL of a 5 mg/mL stock solution of creatine kinase (Sigma). The samples were then loaded onto 20 μL of compound-coupled resin that were equilibrated with PBB-buffer (plus supplements). After one hour of incubation at 26°C, the beads were washed with PBB (100x bed volume). Bound proteins were then eluted either with 200 μM PAV-645 (pig brain) or 100 μM free compound (human brain samples; cell lysates) in the same buffer used as competitor solution or for stripping 1% SDS or 8M urea (cell lysates) for 1h. All elutions were kept frozen until further analysis.
Figure S3. PAV-17 4 reduces ta u phosphorylation al s o in the abs enc e of HSV-1-infection in a MIF and dose dependent manner. Rel a ted to Figure 3
(A) SH-SY5Y-tau-P301S cel ls could efficiently been infected with HSV-1. The cel ls we re infected with increasing MOIs (0 .0 3 to 3. 0 ) of HSV-1 an d then lysed af t er 6h , 9h , 16 h or 24 h. […]
(E) Expression of MIF wa s no t mo du late d up on infection with HSV-1. […] The di ag ram di splays the quantification of MIF normalized to GAPDH derived from three in de pe nd en t exper iments (n =3). […]

Data set [2] can be described thus: in vivo. Further details: species or system Sprague Dawley rats. As to the method: Studies investigating the pharmacokinetics of PAV-617 were performed by Vipragen Biosciences Inc in […]. The animal care committee approval numbers for the studies are: M-Tox: VIP/IAEC/41/2016 and PK: VIP/IAEC/316/2021. […]
(C) Pharmacokinetic assessment of PAV-61 7 in Sprague Da wley ra ts (S D). Ma le SD ra ts (n=4) we re dosed via three ro utes na me ly intravenous (IV )- 1 mg/kg, (IP )- 5 mg/kg an d per ora l (P O)- 5 mg/kg. Plasma concentration wa s anal yzed at di ff e ren t time intervals. Pharmacokinetic pa ra met e rs we re de t erm ine d usi ng Win No nlin . Cma x (p ea k pl asma concentration) achieved through IV wa s 12 8 ng / mL, IP wa s 36 2. 6 ng / mL an d PO wa s 15 1. 1 ng / mL at Tmax (time of pe ak concentration obser ved) 1 h, 0. 5 h an d 4 h respectively. Co mpo un d PAV-61 7 ha s mo de rate t1/2 (ter min al ha lf-life ) through IV- 7. 8 h, IP- 7 h an d PO- 3. 3 h. CL (steady-state clearance) wa s found to be mo de rate- 20 mL /m in/kg which wa s 2. 7 5 times lo wer than ra t liver bl oo d flow . Vz (volum e of di str ibuti on) wa s found to be hi gh- 12 . 7 L/kg an d F (fracti on bi oavailabi lity) wa s found to be ver y go od through IP- 80 % an d mo de rate through PO- 41 % . […]

Where [3] appears, read: male, Sprague-Dawley, rat, ip, 5 mg/kg.
Where [4] appears, read: male, Sprague-Dawley, rat, iv, 1 mg/kg.
Setting [5] is: male, Sprague-Dawley, rat, po, 5 mg/kg.

Structures are written as SMILES.

In general, Vd refers to the apparent volume that relates the amount in the body to the concentration in plasma or blood. The Tmax is the time at which the peak concentration occurs. One may read the bioavailability as the share of a dose that reaches the circulation, judged against a reference dose that is usually intravenous. A high value points to good availability. In general, half-life refers to the time needed for the level to fall by half in the phase considered. A higher half-life goes with slow loss. `[I-].c1cc2nc3ccc(N4CCCC4)cc3[s+]c2cc1N1CCCC1` [PAV-617, 3,7-Di(pyrrolidine-1-yl)phenothiazine-5-ium iodide]: in data set [1], the “binding of / interaction with D-DT” value is “no bi nd ing of D-DT”. Besides, the “CL, times lower than rat liver blood flow” value in data set [2] (male, Sprague-Dawley) is reported as 2. 7 5 times. The Vd in data set [2] (male, Sprague-Dawley, rat) was 12.7 L/kg. The results for the Tmax in data set [2] (setting [3]), in data set [2] (setting [4]) and in data set [2] (setting [5]) were 0.5 h, 1 h and 4 h, respectively. Besides, the results for the bioavailability in data set [2] (setting [3]) and in data set [2] (setting [5]) were 80% and 41%, respectively. Further, the half-life was 420 min in data set [2] (setting [3]), 468 min in data set [2] (setting [4]) and 198 min in data set [2] (setting [5]). In addition, in data set [2] (rat, ip), the “bioavailability following intraperitoneal administration” value is “high bioavailability”. The “Cmax (peak plasma concentration), IP” value in data set [2] (rat, ip, 5 mg/kg) is 36 2. 6 ng/mL. For the same molecule, in data set [2] (rat, iv, 1 mg/kg), the “Cmax (peak plasma concentration), IV” value is given as 12 8 ng/mL. In data set [2] (rat, po, 5 mg/kg), the “Cmax (peak plasma concentration), PO” value is 15 1. 1 ng/mL.
